Measurements taken from paper PMC7469199, “Immunosuppressive Activities of Novel PLA2 Inhibitors from Xenorhabdus hominickii, an Entomopathogenic Bacterium” (Insects, 2020).
Like-named read-outs stand apart in the source and are kept apart here.

Columns and labels:
[1] = tested on: cytosolic PLA2 (cPLA2); experiment: Cytosolic PLA2 (cPLA2) activity; format: biochemical, Spodoptera exigua; settings: for Median Inhibitory Concentrations (IC50), cPLA2: S. exigua, synthetic compounds; for Potency for inhibiting cPLA2 (in words): based on IC50 values
Protocol: (§1) To characterize PLA2 inhibition by test chemicals, activities of two different PLA2s [secretory PLA2 (sPLA2) and cytosolic PLA2 (cPLA2)] were assessed with methods described by Vatanparast et al..

[2] = tested on: S. exigua larvae; experiment: Feeding toxicity, leaf-dipping method; format: in vivo, Spodoptera exigua; settings: for Insecticidal Activities, Feeding: median lethal concentration by Probit analysis, leaf-dipping
Protocol: (§2) For the virulence test of X. hominickii, 24 h-cultured cells (10^8 cfu/mL) were diluted with sterile PBS. After surface sterilization with 95% ethanol, each L5 larva was injected with 1 µL of test compound (1 µg/larva) along with bacterial suspension (10^2 cfu/larva). Injection was performed through the first abdominal proleg using a micro syringe. Injected larvae were incubated at room temperature individually in 9 cm Petri dishes. For oral toxicity assay of B. thuringiensis, a small piece (2 × 2 cm) of Chinese cabbage was dipped in 500 ppm of Bt or a mixture of Bt (500 ppm) with 500 ppm of test chemical for 5 min. After a brief (5 min) drying under a dark condition, the treated leaf was supplied to individual test larva in 9 cm Petri dish for 24 h at room temperature. After 24 h, larvae were fed with fresh cabbage leaves. Each treatment was replicated three times with 10 larvae per replication. […] Larvae were considered dead if they were unable to move in a coordinated manner when prodded with a blunt probe.
All data for continuous variables were subjected to one-way analysis of variance (ANOVA) using PROG GLM in SAS program. Mortality data were subjected to arcsine transformation and used for ANOVA. Means were compared with the least significant difference (LSD) test at Type I error of 0.05. Median toxicity values such as median lethal dose (LD50), median lethal concentration (LC50), median lethal time (LT50), and median inhibition concentrations (IC50) were calculated by Probit analysis using EPA Probit Analysis Program, ver. 1.5 (U.S. Environmental Protection Agency, Washington, DC, USA).
These compounds were also tested for their feeding toxicities using a leaf-dipping method.

[3] = tested on: S. exigua larvae; experiment: Insecticidal activity by injection; format: in vivo, Spodoptera exigua; settings: for Insecticidal Activities, Injection: median lethal dose by Probit analysis, S. exigua larvae
Protocol: All data for continuous variables were subjected to one-way analysis of variance (ANOVA) using PROG GLM in SAS program. Mortality data were subjected to arcsine transformation and used for ANOVA. Means were compared with the least significant difference (LSD) test at Type I error of 0.05. Median toxicity values such as median lethal dose (LD50), median lethal concentration (LC50), median lethal time (LT50), and median inhibition concentrations (IC50) were calculated by Probit analysis using EPA Probit Analysis Program, ver. 1.5 (U.S. Environmental Protection Agency, Washington, DC, USA). […]

[4] = tested on: hemocyte phagocytosis of S. exigua; experiment: Phagocytosis assay with FITC-labeled E. coli in L5 larvae; format: in vivo, Spodoptera exigua; settings: for Median Inhibitory Concentration (IC50), Phagocytosis: injected into L5 larvae with FITC-labeled E. coli
Protocol: For in vivo phagocytosis assay, test chemical (1 µL) and FITC-labeled E. coli (5 µL, 5 × 10^4 cells/µL) were injected to L5 larva. Hemolymph (50 µL) was collected at 15 min after injection and mixed with 50 µL of ice cold ACB. After centrifugation at 700 × g for 3 min at 4 °C, the supernatant plasma was replaced with 100 µL of TC-100 insect cell culture medium (Welgene, Daegu, Korea). Hemocyte suspension (10 µL) was placed onto a slide and over laid with 10 µL glycerol (50%, v/v). Hemocytes undergoing phagocytosis were determined by fluorescence-emitting cells under a fluorescence microscope (Leica, Wetzlar, Germany) at 40× magnification. For in vitro phagocytosis, hemocyte suspension and labeled bacteria mixture (30 µL) were incubated in a dark place for 1 h at room temperature. Hemocytes were then washed three times with PBS by centrifugation at 700× g for 2 min at 4 °C and finally resuspended in TC-100 medium. This hemocyte suspension was observed under the fluorescence microscope in FITC or DIC mode after forming monolayers on glass slides.

[5] = tested on: secretory PLA2 (sPLA2); experiment: Secretory PLA2 (sPLA2) activity; format: biochemical, Spodoptera exigua; settings: for Median Inhibitory Concentrations (IC50), sPLA2: S. exigua, synthetic compounds
Protocol: as §1

[6] = tested on: hemocyte nodule formation; experiment: Nodulation assay after E. coli injection in L5 larvae; format: in vivo, Spodoptera exigua; settings: for Median Inhibitory Concentration (IC50), Nodulation: injected into L5 larvae with E. coli, nodules counted after 8 h
Protocol: To assess nodule formation, immune challenge was performed by injecting 3 µL of Escherichia coli Top10 (10^4 cells/larva) (Invitrogen, Madison, WI, USA) through the abdominal proleg of L5 larvae using a microsyringe (Hamilton, Reno, NV, USA). After incubating at 25 °C for 8 h, test insects were dissected to count the number of melanized nodules under a stereo microscope (Stemi SV11, Zeiss, Jena, Germany) at 50× magnification. For chemical test, 1 µL aliquot of test chemical at different concentrations was injected into each larva along with E. coli. AA was injected at 10 μg per larva. Each treatment was independently replicated five times.

[7] = tested on: rats; settings: cited from earlier work
[8] = tested on: Sf9 cells; experiment: Cytotoxicity test (MTT); format: cell-based; settings: for Cytotoxicity (MIC, minimum inhibitory concentration): MTT, 24 h at 28 °C
Protocol: Cytotoxicity of each secondary metabolite was evaluated by 3-(4,5 dimethylthiazol-2-yl)-2,5-diphenyl tetrazolium bromide (MTT) assay according to the method described by Mollah et al.. with a slight modification. Briefly, Sf9 cells (1.2 × 10^4 cells in 200 μL of TC-100 medium) were seeded into each 96-well. After adding each test chemical (2.5 μL in DMSO), the plate was incubated at 28 °C for 24 h. Control cells were treated with 2.5 μL of DMSO. After 24 h incubation, 10 μL of MTT (5 mg/mL in PBS) was added to each well and cells were cultured for another 4 h at 28 °C. Formazan granules formed in viable cells were dissolved in 50 μL of DMSO. Absorbance was then measured at 540 nm using a microplate reader (Victor Multilabel Plate Reader, PerkinElmer, Waltham, MA, USA).

[9] = tested on: rabbits; settings: cited from earlier work
[10] = tested on: hemocyte PLA2 of S. exigua; experiment: Nonspecific (total) hemocyte PLA2 activity, pyrene-labeled phospholipid fluorometric assay; format: biochemical, Spodoptera exigua; settings: for Median Inhibitory Concentrations (IC50), Total PLA2: hemocyte extract of S. exigua L5 larvae, synthetic compounds
Protocol: Hemocyte PLA2 activity was fluorometrically determined with a pyrene-labeled phospholipid substrate using a spectrofluorometer (VICTOR multi-label plate reader, PerkinElmer, Waltham, MA, USA) at excitation and emission wavelengths of 345 and 398 nm, respectively. For measuring PLA2 activity, hemolymph was collected from ~10 L5 larvae. Hemocytes and plasma were separated by centrifugation at 800× g for 3 min at 4 °C. Hemocytes were then homogenized in 500 µL of PBS with a polytron (Ultra-Turrax T8, Ika Laboratory, Funkentshort, Germany). After centrifugation at 14,000× g for 5 min at 4 °C, protein concentration of the supernatant was determined by Bradford assay using bovine serum albumin (BSA) as the standard. The reaction mixture was prepared in a 96-well microplate by adding 129 μL of 50 mM Tris buffer (pH 7.0), 2 μL of 1 M CaCl2, and 2 μL of 10% BSA into each well. A sample solution consisted of 5 μL of test bacterial metabolites and 10 μL of hemocyte enzyme extract ([…]). The plate was then incubated at room temperature for 30 min. Enzyme reaction was then initiated by adding pyrene-labeled PL substrate (2 μL) to the reaction mixture.

[11] = tested on: S. exigua larvae; experiment: Effect on pathogenicity of Bacillus thuringiensis (oral, leaf dipping); format: in vivo, Spodoptera exigua; settings: cabbage leaf dipped in Bt 500 ppm mixed with inhibitor 500 ppm; 4 days after treatment
Protocol: as §2

[12] = tested on: mammals; settings: cited from earlier work
[13] = tested on: S. exigua larvae; experiment: Effect on pathogenicity of X. hominickii (co-injection); format: in vivo, Spodoptera exigua; settings: L5 larvae injected with Xh 10^2 cfu/larva along with inhibitor (5 µg/larva Fig. 7A; 2 µg/larva Fig. S6); 4 days after treatment
Protocol: as §2, with “After surface sterilization with 95% ethanol, each L5 larva was injected with 1 µL of test compound (1 µg/larva) along with bacterial suspension (10^2 cfu/larva).” left out

[14] = molecular target: mushroom tyrosinase; design: method as in PMID 14714727; settings: cited from earlier work
[15] = reference not printed with the value, next sentence cites ref 48

Row | SMILES | Median Inhibitory Concentrations (IC50), cPLA2 [1] | Insecticidal Activities, Feeding [2] | Insecticidal Activities, Injection [3] | Median Inhibitory Concentration (IC50), Phagocytosis [4] | Median Inhibitory Concentrations (IC50), sPLA2 [5] | Median Inhibitory Concentration (IC50), Nodulation [6] | Cytotoxicity (MIC, minimum inhibitory concentration) [8] | Median Inhibitory Concentrations (IC50), Total PLA2 [10] | Potency for inhibiting cPLA2 (in words) [1] | further results
1 | CCCCNCCCC [DBA, dibutylamine] | 0.19 ± 0.02 c µg/mL | 2969.46 ± 50.56 c µg/mL | 38.77 ± 3.26 b µg/larva | 5.0 ± 0.58 c ng/larva | 0.11 ± 0.02 de µg/mL | 0.71 ± 0.05 d ng/larva | 0.80 ± 0.03 b µg/mL | 0.18 ± 0.02 c µg/mL | – | Acute oral toxicity (LD50) [7, 15]: 1890 mg/kg; Acute dermal toxicity (LD50) [9, 15]: 7680 mg/kg
2 | O=C1NC(=O)c2ccccc21 [PM, phthalimide] | 0.04 ± 0.003 f µg/mL | 2150.66 ± 50.07 f µg/mL | 22.11 ± 2.69 d µg/larva | 0.40 ± 0.05f ng/larva | 0.17 ± 0.01 µg·days/mL | 0.20 ± 0.02 f ng/larva | 0.1 ± 0.01 f µg/mL | 0.05 ± 0.007 e µg/mL | highly potent | Feeding (oral) toxicity (in words) ([2]; leaf-dipping method): most potent; Killing of larvae after injection (in words) ([3]; individually injected to S. exigua larvae): most potent; Inhibition of phagocytosis (in words) ([4]; S. exigua hemocytes): highly potent; Effect on B. thuringiensis insecticidal activity [11]: significantly (p < 0.05) increased; Inhibition of nodule formation (in words) ([6]; S. exigua L5 larvae, E. coli challenge): high potency; Acute mammalian toxicity LD50 ([12]; oral administration): > 5000 mg/kg; Effect on X. hominickii pathogenicity / insecticidal activity [13]: significantly (p < 0.05) increased; Concentration inducing cytotoxicity [8]: less than 1 µg/mL; Inhibitory activity against hemocyte PLA2 (in words) ([10]; S. exigua hemocyte PLA2, extracts, fractions or synthetic compounds): most potent
3 | CCCCCCCCOC(=O)c1ccc(C(=O)OCCCCCCCC)cc1 [DOTP, dioctyl terephthalate] | 0.06 ± 0.005 e µg/mL | 3220.45 ± 90.91 b µg/mL | 38.89 ± 3.21 b µg/larva | 8.70 ± 0.89 b ng/larva | 0.56 ± 0.05 c µg/mL | 1.10 ± 0.07 b ng/larva | 0.50 ± 0.01 c µg/mL | 0.16 ± 0.006 cd µg/mL | highly potent | Toxicity to mammals (in words) [12]: relatively nontoxic
4 | CCCCC(CC)COC(=O)c1ccccc1C(=O)OCC(CC)CCCC (stereo not drawn) [BEP, bis(2-ethylhexyl) phthalate] | 0.09 ± 0.01 µg·days/mL | 2679.58 ± 60.58 µg·days/mL | 34.88 ± 2.08 bc µg/larva | 1.50 ± 0.22 d ^2 ng/larva | 0.07 ± 0.01 ef µg/mL | 1.0 ± 0.11 c ng/larva | 0.30 ± 0.01 d ^3 µg/mL | 0.17 ± 0.01 cd ^2 µg/mL | – | Potency for inhibiting sPLA2 (in words) ([5]; based on IC50 values): highly potent; Acute toxicity, oral ([7]; oral administration): 30 g/kg; Acute toxicity, dermal ([9]; dermal application): 24 g/kg
5 | N#Cc1ccc(C(=O)O)cc1 [4-cyanobenzoic acid] | – | – | – | – | – | – | – | – | – | IC50 ([14]; diphenolase activity of mushroom tyrosinase, read-out: IC50 for diphenolase): 1.4 mM; IC50 ([14]; monophenolase activity of mushroom tyrosinase, read-out: IC50 for monophenolase): 2.45 mM
